PMC4533973, “Synthesis and Evaluation of Chloramphenicol Homodimers: Molecular Target, Antimicrobial Activity, and Toxicity against Human Cells” (PLoS ONE, 2015)

Assays:
[1] = system: post-translocation ribosomal complex (complex C) derived from E. coli; test: Inhibition of peptide-bond formation (puromycin reaction, AcPhe-puromycin synthesis); assay type: biochemical; details: for Ki: 25°C, buffer A; for k off: nonlinear regression of k eq
Method: The inhibitory effect of CAM dimers on peptide-bond formation was studied using the puromycin reaction, a model reaction between puromycin and a post-translocation ribosomal complex (complex C) derived from E. coli. Since puromycin, a pseudo-substrate of PTase which binds to the A-site of the catalytic center, was present in excess, the reaction obeyed first-order kinetics. The first-order rate constant, k obs, at each concentration of puromycin was determined by fitting the x values into Eq 1, ln100/100−x=kobst (1) where x is the product AcPhe-puromycin, expressed as the percentage of complex C added in the reaction mixture, and t is the time of the reaction.
A representative time plot obtained at 400 μM puromycin, in the absence of inhibitor, is illustrated in Fig 3A (upper line) and, as expected, is characterized by linearity. However, when the reaction proceeded in the presence of a CAM dimer, e.g. compound 5, the time plots were characterized by two unique features that distinguish them from a typical kinetic behavior. […] Second, the slopes of both progress curves varied as a function of the inhibitor concentration (Fig 3A, four lower curves). […] These kinetic results are consistent with compound 5 operating through an induced fit mechanism (Fig 3C), in which the inhibitor first binds rapidly to complex C to form the encounter complex CI, which then undergoes a slow conformational change to produce a final, tighter complex C*I. Corroborative evidence for the consistency of this model is provided by the hyperbolic shape of the equilibration plots (k eq versus [I]), in which k eq represents the apparent rate constant for the attainment of equilibrium among C, CI, and C*I (Fig 3B). If one-step mechanism of inhibition was applicable (C + I ⇄ C*I), k eq should be a linear function of [I] [27]. […] Because the isomerization constant k on/k off was calculated to be 3.6, the inhibition process was finally associated with high overall inhibition of peptide-bond formation (Ki* = 0.3 μM; S1 Fig, panel C). In addition, the slow k off rate (0.64 min^-1) provided prolonged residence time for compound 5 at the ribosome, a behavior potentially predicting good efficacy in vivo [28].
The puromycin reaction, i.e. the reaction between complex C and excess puromycin (S), was carried out at 25°C in buffer A [100 mM Tris-HCl pH 7.2, 6 mM (CH3COO)2Mg, 100 mM NH4Cl and 6 mM 2-mercaptoethanol]. Under these conditions, the puromycin reaction obeys C + S ⇄KS CS→kcat C^′ + S pseudo-first-order kinetics and was analyzed as previously described.
In the presence of CAM dimers, biphasic semi-logarithmic time plots were obtained. The slope of the straight line through the origin was seen as the value of the apparent rate constant, k obs(early), at the early phase of the reaction. Similarly, the slope of the second straight line was taken as the apparent rate constant, k obs(late), at the late phase of the puromycin reaction.

E. coli (A2503C) = test: Antibacterial activity (growth inhibition, EC50); assay type: cell-based, Escherichia coli; details: for EC50: Escherichia coli
From the text: (§1) A.S. Mankin (University of Illinois). E. coli ΔtolC strain BL21 DE3 with impaired AcrAB-TolC, a proton-dependent MDR efflux pump causing multidrug resistance, was offered by Dr D.N. Wilson (University of Munich) and included in our study to test if this mechanism of resistance affects the efficacy of CAM dimers. […] I. Spiliopoulou (National Reference Laboratory for Staphylococci, School of Medicine, University of Patras, Greece). Finally, E. coli strain Rosetta(DE3)pLysS, containing a chloramphenicol resistant gene in the pLysS plasmid, was purchased from Novagen and was also included in our study. Briefly, S. aureus or E. coli cells (200 μl of a 0.700 OD560 preculture) containing wild-type or mutant ribosomes were added in 3.8 ml of LB (Luria-Bertani) medium and grown at 37°C in the presence or absence of CAM or CAM dimers until the optical density of the control culture (grown in the absence of drug) reached the value 0.700 at 560 nm. For E. faecium and P. aeruginosa cultures, TSB (Tryptic Soy Broth) medium was used, instead of LB medium, in order to achieve exponential doubling times between 25 and 35 minutes. From dose-response curves, the half-maximal effective concentration (EC50) for each compound and strain was estimated. EC50 represents the molar concentration of a compound that produces 50% of the maximal possible effect. The EC50 values were mathematically determined by non linear regression fitting of the observed culture optical-density values, expressed as the percentage of 0.700 (y), into Hill Equation, y=min+max−min/1+(x/EC50)^−n where min and max are the lowest and highest observed values of the culture optical density, respectively, x the concentration of the tested compound, and n the Hill coefficient that represents the largest absolute value of the curve slope. EC50 is equal to the x- value of the sigmoid’s midpoint. Fitting was performed using the Four Parameter Logistic Curve of the SigmaPlot Program Version 11.0 (Systat Software, Inc) for Exact Graphs and Data Analysis.

[2] = system: E. coli Rosetta(DE3)pLysS; test: Antibacterial activity (growth inhibition, EC50); assay type: cell-based, Escherichia coli; details: for EC50: Escherichia coli
From the text: as §1

E. coli (WT) = test: Antibacterial activity (growth inhibition, EC50); assay type: cell-based, Escherichia coli; details: for EC50: Escherichia coli, LB medium, 37°C, OD560; for EC50(cell growth)/IC50(puro): wild-type E. coli, IC50(puro) calculated from Ki* at 2 mM puromycin
From the text: as §1

E. coli (ΔtolC) = test: Antibacterial activity (growth inhibition, EC50); assay type: cell-based, Escherichia coli; details: Escherichia coli, BL21-DE3
From the text: as §1

E. coli (A2058G) = test: Antibacterial activity (growth inhibition, EC50); assay type: cell-based, Escherichia coli; details: for EC50: Escherichia coli
From the text: as §1

[3] = system: human peripheral blood cells; test: Toxicity assays in human peripheral blood cells; assay type: cell-based
Method: Fig 7 Toxicity assays in human peripheral blood cells. Peripheral blood was collected in EDTA-coated tubes from 5 healthy volunteers (age range: 25–30 years). Concentration was adjusted to 1.8×10^9 cells/L using RPMI-1640 medium containing 1% penicillin/streptomycin. Cells were cultured in triplicate in the presence or the absence of 30 or 60 μM CAM or compound 5, under a humidified 5% CO2 atmosphere for 5 days, at 37°C. Cultures were counted daily by a CELL-DYN 3700 Hematology Analyzer and values were expressed as a percentage of cells measured in controls.
Peripheral blood was collected in EDTA-coated tubes from 5 healthy volunteers (age range: 25–30 years). Cell concentration was adjusted to 5×10^8 cells/l using RPMI-1640 medium (GIBCO BRL) containing 1% penicillin/streptomycin. Cells were cultured in triplicate under a humidified 5% CO2 atmosphere for 5 days, at 37°C, in the absence (control cultures) or the presence of CAM or CAM dimers. Counting of cells was performed daily in a CELL-DYN 3700 Hematology Analyzer (Abbott, USA) and values were expressed as a percentage of cells measured in control cultures.

[4] = overall inhibition constant (CI + C*I)

Compound	Ki ([1]; encounter complex CI)	k off [1]	Ki [1, 4]	activity compared to CAM ([1]; ranking by K i*)	fold less efficient than compound 5 ([1]; ranking by K i*)	EC50 (E. coli (A2503C))	EC50 [2]	EC50 (E. coli (WT))	EC50(cell growth)/IC50(puro) (E. coli (WT))	EC50 (E. coli (ΔtolC))	EC50 (E. coli (A2058G))	toxicity against other types of leukocytes [3]	time of peak toxicity on neutrophils ([3]; 120 h exposure of blood cells)	toxicity on neutrophils ([3]; 120 h exposure of blood cells, 30 or 60 μM)	apparent association rate constant, (k on + k off)/K i [1]	fold more potent than homodimers of CAM previously synthesized by Berkov-Zrihen et al. ([1]; direct comparison is not accurate)	fold more potent than CAM ([1]; ranking by K i*)	fold more active than CAM in inhibiting the A2503C mutant (E. coli (A2503C))	activity compared to CAM in inhibiting the growth of Rosetta(DE3)pLysS E. coli cells [2]	activity relative to CAM in inhibiting the growth of the A2058G mutant (E. coli (A2058G))
O=C(CCCCC(=O)N[C@H](CO)[C@H](O)c1ccc([N+](=O)[O-])cc1)N[C@H](CO)[C@H](O)c1ccc([N+](=O)[O-])cc1 [Compound 4, N^1,N^6-Bis((1R,2R)-1,3-dihydroxy-1-(4-nitrophenyl)propan-2-yl)adipamide]	6 ± 0.54 µM	0.0167 ± 0.00067 s⁻¹	1.87 ± 0.15 µM	lower	6 fold	> 100 µM	> 200 µM	83.6 ± 6.2 µM	7.45 ± 0.81	98 ± 16.3 µM	97 ± 3.3 µM									
O=C(N[C@H](CO)[C@H](O)c1ccc([N+](=O)[O-])cc1)c1ccc(C(=O)N[C@H](CO)[C@H](O)c2ccc([N+](=O)[O-])cc2)cc1 [Compound 5, N^1,N^4-Bis ((1R,2R)-1,3-dihydroxy-1-(4-nitrophenyl)propan-2-yl)-terephthalamide]	1.4 ± 0.12 µM	0.0105 ± 0.0005 s⁻¹	0.3 ± 0.03 µM			16.4 ± 1.5 µM	23.5 ± 1.3 µM	25.3 ± 1.9 µM	14.06 ± 1.75	23.7 ± 1.5 µM	18 ± 1.5 µM	negligible	48 h	mild and transient toxicity	3×10^4 M^1s^-1	~ 10 fold	3 fold	approximately 2 fold	five-fold higher activity	equivalent to CAM
